Source: paper PMC12705613 (Frontiers in Microbiology, 2025)
Structures can show the parent of a compound that is named as a salt.

Experiments:
[1] = system: gut microbiota; test: Fecal gut microbiota analysis after ceftriaxone treatment (16S rRNA, bacterial load); assay type: in vivo, rat; conditions: ceftriaxone sodium 400 mg/kg/day orally, 2 weeks; feces of WKYs and SHRs
Protocol: Fecal samples were freshly collected, rapidly frozen, and weighed before storage at −80 °C until use. The absolute quantification of bacterial 16S rRNA amplicon sequencing was conducted by Majorbio Bio-Pharm Technology Co. Ltd. in Shanghai, China. Total microbial genomic DNA was extracted using the E. Z. N. A.® Soil DNA Kit, following the manufacturer’s guidelines. The quality and concentration of the extracted DNA were assessed through 1.0% agarose gel electrophoresis and with a NanoDrop 2000 spectrophotometer. RT-PCR was performed using universal 16S primers (Forward: 5′-[sequence]-3′, Reverse: 5′-[sequence]-3′) ([Nadkarni et al., 2002]). The relative bacterial load was determined by normalizing the DNA content against the weight of feces from the untreated group.
Fecal DNA was extracted utilizing the E. Z. N. A.® Soil DNA Kit. The extracted DNA was analyzed using a 1% agarose gel, and its concentration and purity were assessed with NanoDrop2000 spectrophotometer. […] The resulting PCR products were purified, quantified, and homogenized to create a sequencing library, which was commissioned to Majorbio Bio Pharm Technology Co. Ltd. The sequencing data were processed using the DADA2 algorithm in Qiime 2 to obtain amplicon sequence variants (ASVs), followed by the removal of chloroplast and mitochondrial sequences. […]

[2] = Body weight and blood pressure during ceftriaxone treatment; conditions: ceftriaxone sodium 400 mg/kg/day orally, 2 weeks; WKYs and SHRs
[3] = in vivo; conditions: for MRT last: MRT0-t; for MRT inf: MRT 0-∞; for half-life: t1/2z
Protocol: The pharmacokinetic study was described as follows.
The UHPLC-TQ-MS analysis was conducted on an LC-30 AD ultra high-performance liquid chromatograph (Shimadzu, Japan) connected to an AB 4500 (AB Sciex, United States) Triple Quadrupole Mass Spectrometer with an ESI source. Chromatographic separation was achieved on an Acquity UHPLC HSS T3 column (100 × 2.1 mm, 1.8 μm) at 40 °C, and the eluent was aqueous formic acid (100:0.1, v/v) (A) and acetonitrile with formic acid (100:0.1, v/v) (B) at a flow rate of 0.3 mL min^−1. Gradient elution differs in the calculation of residual content and pharmacokinetic experiments. MRM mode was employed. Data processing was performed using Analyst Software (AB Sciex). The UHPLC-TQ-MS method validation was conducted in terms of selectivity, linearity, carryover, accuracy and precision, matrix effect, extraction recovery, dilution integrity, and stability under various conditions, which was performed in line with the FDA guidelines for bioanalytical assays. More details were described in the Supplementary material method.
The comparisons of the relative abundance of the genera between different groups were performed using the Wilcoxon rank-sum test. Comparisons between WKY and SHRs before and after CRO treatment were conducted using either a t-test or one-way ANOVA, with p values < 0.05 considered statistically significant. […] Graphs were created using GraphPad Prism 8.0 software.
For the determination of drug remaining contents in the supernatant, the gradient elution was as follows: 0.1–0.5 min at 45% B; 0.5–1.0 min at 45–65% B; 1.5–4.0 min at 65–85% B; 4.0–4.5 min at 85% B; 4.5–4.6 min at 85%–45% B; 4.6–5.0 min at 45% B. For pharmacokinetics, the gradient elution was performed as follows: 0–0.5 min at 30% B; 0.5–1.5 min at 30–45% B; 1.5–5.0 min at 45–60% B; 5.0–7.0 min at 60–80% B; 7.0–8.0 min at 80% B; 8.1–10.0 min at 30% B. The injection volume was 5 μ L. The multiple reaction monitoring (MRM) mode was used to detect analytes and IS in the positive ion mode. The mass spectrometry parameters were set as follows: ion spray voltage was 5500 V, turbo spray temperature (TEM) of 550℃; nebulizer gas (gas 1) of 50 psi; heater gas (gas 2) of 50 psi and curtain gas of 40 psi. Nitrogen was kept as the nebulizer and auxiliary gas.

[4] = Stability of the analytes in rat plasma at different storage conditions; assay type: in vitro ADME
Protocol: Analysis of QC samples was performed according to a standard curve, which was obtained from freshly prepared calibration standard samples. The autosampler stability was determined by placing samples in the autosampler rack at 8 ℃ for 24 h. The freeze-thaw stability was evaluated after three complete freeze-thaw cycles (-80 ℃ to 25 ℃) on consecutive days. The short-term stability was determined after samples were exposed to room temperature for 6 h. The long-term stability was assessed after storing the samples at -80 ℃ for 30 days. The analytes were considered stable if the deviation between the mean measured concentration and the nominal concentration was within ± 15.0%.

[5] = Metabolites detection in vivo in plasma, feces and urine (UHPLC-Q-TOF-MS); parameters: species or system rat; conditions: single oral losartan potassium 20 mg/kg
Protocol: For urine and feces, cumulative samples were collected over the following time intervals: 0–4, 4–8, 8–12, and 12–24 h after administration. The processing of the biological samples can be found in the Supplementary material.
The biological samples were processed as follows: For plasma, a total of 400 μL of pooled plasma was mixed by combining 50 μL aliquots from each time point. A 100 μL aliquot was mixed with 300 μL of methanol, vortexed for one minute, and centrifuged at 5,000 rpm for 10 minutes at 4°C [1]. In the case of urine, 1 mL was centrifuged at 4,000 rpm for 20 minutes at 4°C, and the supernatant was mixed with 2 mL of methanol, vortexed for one minute, and centrifuged at 12,000 rpm for 10 minutes at 4°C [2]. For fecal samples, 1.0 g of homogenized feces was extracted with 4 mL of methanol, sonicated in an ice-water bath for 20 minutes, and then centrifuged at 12,000 rpm for 10 minutes at 4°C [3]. Supernatants from the plasma, urine, and fecal extracts were evaporated under nitrogen gas, redissolved in methanol, and transferred to liquid chromatography vials. Samples were analyzed using UHPLC-Q-TOF-MS/MS for metabolite profiling.

[6] = parameters: method as in Yoo et al., 2016; conditions: ref Yoo et al., 2016; cited from earlier work
[7] = SHR, rat, in vivo, po, 20 mg/kg
[8] = WKY, rat, in vivo, po, 20 mg/kg

CO/N=C(\C(=O)N[C@@H]1C(=O)N2C(C(=O)O)=C(CSc3nc(=O)c(=O)[nH]n3C)CS[C@H]12)c1csc(N)n1 [CRO, ceftriaxone disodium salt hemiheptahydrate]
α-diversity (Chao1, Shannon index) and bacterial abundance [1]: significant reduction
Body weight, CRO-treated vs untreated [2]: no differences in body weight

CCCCc1nc(Cl)c(C=O)n1Cc1ccc(-c2ccccc2-c2nn[nH]n2)cc1 [E-3179]
AUC0-∞ [3, 7]: 900.54 ± 226.29 ng·h/mL
AUC(0-t) [3, 7]: 850.57 ± 189.22 ng·h/mL
Cmax [3, 7]: 143.43 ± 108.27 ng/mL
MRT0-t [3, 7]: 7.68 ± 1.38 h
MRT 0-∞ [3, 7]: 11.33 ± 2.86 h
Tmax [3, 7]: 1.96 ± 1.15 h
t1/2z [3, 7]: 5.61 ± 3.15 h
MRT last [3, 7]: 6.99 ± 1.41 h
MRT inf [3, 7]: 9.57 ± 2.83 h
Tmax ([3]; SHR, rat, in vivo, po, 20 mg/kg, Tmax): 1.83 ± 1.69 h
half-life [3, 7]: 5.51 ± 2.46 h
Decrease of AUC0-∞ ([3]; SHRs compared to WKYs, losartan potassium 20 mg/kg intragastric): 36.13%
Cmax [3, 8]: 310.47 ± 243.53 ng/mL
MRT0-t [3, 8]: 10.46 ± 1.03 h
MRT 0-∞ [3, 8]: 15.25 ± 4.02 h
t1/2z [3, 8]: 5.29 ± 1.44 h
AUC(0-t) ([3]; WKY, rat, in vivo, po, 20 mg/kg, AUC0-t): 1340 ± 741 ng·h/mL
AUC(0-inf) ([3]; WKY, rat, in vivo, po, 20 mg/kg, AUC0-∞): 1410 ± 741 ng·h/mL
MRT last [3, 8]: 6.18 ± 1.58 h
MRT inf [3, 8]: 8.79 ± 4.19 h
half-life [3, 8]: 5.75 ± 2.71 h
Stability RE ([4]; autosampler for 24 h (8 ℃), high nominal conc. (losartan 8000, E-3174 4000, E-3179 1600 ng/mL)): 2.34%
Stability RE ([4]; autosampler for 24 h (8 ℃), low nominal conc. (losartan 0.2, E-3174 10, E-3179 0.4 ng/mL)): 2.96%
Stability RE ([4]; autosampler for 24 h (8 ℃), middle nominal conc. (losartan 2000, E-3174 1000, E-3179 400 ng/mL)): 12.05%
Stability RE ([4]; room temperature for 6 h, high nominal conc. (losartan 8000, E-3174 4000, E-3179 1600 ng/mL)): -10.69%
Stability RE ([4]; room temperature for 6 h, low nominal conc. (losartan 0.2, E-3174 10, E-3179 0.4 ng/mL)): -2.22%
Stability RE ([4]; room temperature for 6 h, middle nominal conc. (losartan 2000, E-3174 1000, E-3179 400 ng/mL)): 4.87%
Stability RE ([4]; three freeze-thaw cycles, high nominal conc. (losartan 8000, E-3174 4000, E-3179 1600 ng/mL)): 6.66%
Stability RE ([4]; three freeze-thaw cycles, low nominal conc. (losartan 0.2, E-3174 10, E-3179 0.4 ng/mL)): 2.96%
Stability RE ([4]; three freeze-thaw cycles, middle nominal conc. (losartan 2000, E-3174 1000, E-3179 400 ng/mL)): 2.84%
Stability RE ([4]; −80°C for 30 days, high nominal conc. (losartan 8000, E-3174 4000, E-3179 1600 ng/mL)): 7.58%
Stability RE ([4]; −80°C for 30 days, low nominal conc. (losartan 0.2, E-3174 10, E-3179 0.4 ng/mL)): 3.27%
Stability RE ([4]; −80°C for 30 days, middle nominal conc. (losartan 2000, E-3174 1000, E-3179 400 ng/mL)): 9.16%
Abundance in feces and plasma, SHRs vs WKYs [5]: lower in SHRs than in WKYs
Abundance in urine, SHRs vs WKYs [5]: more abundant in urine

CCOC(=O)C1=C(COCCN)NC(C)=C(C(=O)OC)C1c1ccccc1Cl (centres unmarked) [amlodipine]
Systemic exposure in antibiotic-treated rats vs controls [6]: significantly elevated
